In US20120101137A1, “NOVEL THIOPHENECARBOXAMIDE DERIVATIVE AND PHARMACEUTICAL USE THEREOF” (SANWA KAGAKU KENKYUSHO CO., LTD., priority 2009, published 2012):
Where a name gives a salt, the structure may show the parent alone.

The compounds below were run against T1, human glucokinase (Homo sapiens, UniProt P35557) (assay: Measurement of glucokinase activity (G6PDH-coupled, absorbance at 340 nm)). Settings: read-out: GK activation effect (%).
T1 construct: made in house; host or cells: E. coli
T1 sequence (P35557 16-465): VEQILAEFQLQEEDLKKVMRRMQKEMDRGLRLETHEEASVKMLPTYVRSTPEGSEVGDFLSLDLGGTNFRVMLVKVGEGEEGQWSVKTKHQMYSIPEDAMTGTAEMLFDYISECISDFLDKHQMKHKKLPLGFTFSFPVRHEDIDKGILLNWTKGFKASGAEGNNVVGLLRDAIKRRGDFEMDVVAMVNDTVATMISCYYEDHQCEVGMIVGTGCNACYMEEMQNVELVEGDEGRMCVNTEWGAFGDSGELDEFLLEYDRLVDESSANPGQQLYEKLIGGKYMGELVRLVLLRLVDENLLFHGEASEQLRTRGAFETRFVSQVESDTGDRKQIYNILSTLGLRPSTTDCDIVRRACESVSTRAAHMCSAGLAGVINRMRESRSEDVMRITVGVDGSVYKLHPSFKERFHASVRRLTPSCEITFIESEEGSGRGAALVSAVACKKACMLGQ
Assay type: biochemical
Procedure: To the EcoRI, HindIII site of a pQE-80 expression vector were introduced a DNA fragment in which the same restriction enzyme site had been added to the N-terminal deficiency (1-15 amino acids deficiency)-encoding region of a human GK. E. coli was transformed by using this plasmid to express a human glucokinase, and purification was conducted as follows.
A fungus body that had been collected from 200 ml of an E. coli culture solution was collected and suspended in 20 ml of Extraction buffer A (20 mM HEPES, pH 8.0, 1 mM MgCl2, 150 mM NaCl, 2 mM mercaptoethanol, 0.25 mg/ml lysozyme, […] sodium azide), and the suspension was stood still at room temperature for 5 minutes. 20 ml of Extraction buffer B (1.5 M NaCl, 100 mM CaCl2, 100 mM MgCl2, 0.02 mg/ml DNA catabolic enzyme 1, a protease inhibitor tablet (Complete (registered trademark) 1697498): one tablet per 20 ml of the buffer) was added therero, followed by standing still at room temperature for 5 minutes. The extract liquid was then centrifuged by 15,000 g for 30 minutes at 4° C., and the supernatant was used as an E. coli extract liquid. The E. coli extract liquid was filtered by a 0.45 μm filter and applied to an Ni-NTA agarose 2 mL bed that had been equilibrated with a buffer (20 mM HEPES pH 8.0, 0.5 M NaCl) comprising 20 mM of imidazole. The bed was washed with about 10 ml of a washing buffer and eluted stepwise with buffers (20 mM HEPES pH 8.0, 0.5 M NaCl) each comprising imidazole by from 40 to 500 mM. Each of the column fractions was analyzed by using SDS gel electrophoresis, and the fraction comprising hGK (MW: 52 KDa) was concentrated. The concentrated sample was then passed through a Sephacryl S-200HR (11/60) gel filtration column and eluted with buffer B (20 mM HEPES, pH 8.0, 1 mM MgCl2, 150 mM NaCl, 1 mM DTT). The eluted fraction was analyzed by SDS gel electrophoresis, and the fraction comprising hGK was concentrated. Finally, 50% glycerol was added to the fraction, and the fraction was stored at −20° C.
178 μl of GK assay mix (25 mM Hepes buffer (pH 7.1), 25 mM KCl, 2 mM MgCl2, 1 mM NADP, 1 mM dithiotheitol, 2 unit/mL G6PDH, 5 mM D-glucose, a suitable amount of GK) was added to a UV permeable 96-well plate. 2 μl of the test compound dissolved in DMSO was added thereto, followed by standing still at room temperature for 10 minutes, and 20 μl al of 20 mM ATP was then added thereto to start a reaction. An absorbance at 340 nm was measured by Spectra Max Plus for 5 minutes at intervals of 30 seconds at room temperature, and the compound was evaluated in the reaction at the first 3 minutes.

SMILES	activation at 10 µM [%]
Cc1sc([C@@H]2C[C@@H](F)CN2C(=O)CNS(C)(=O)=O)cc1C(=O)Nc1ncc(F)s1 [Example 12, (−)-5-[(2S,4R)-4-Fluoro-1-(2-methanesulfonylaminoacetyl)pyrrolidin-2-yl]-2-methylthiophene-3-carboxylic acid (5-fluorothiazol-2-yl)amide]	630
CC(=O)N[C@@H](C)C(=O)N1C[C@H](F)C[C@H]1c1cc(C(=O)Nc2ncc(F)s2)c(C)s1 [Example 23, (−)-5-[(2S,4R)-1-((S)-2-Acetylaminopropionyl)-4-fluoropyrrolidin-2-yl]-2-methylthiophene-3-carboxylic acid (5-fluorothiazol-2-yl)amide]	641

Same assay, conditions: test compound at final concentration of 10 μM, 5 mM D-glucose, in comparison with a well that did not comprise the compound; read-out: GK activation effect (%)

SMILES	activation at 10 µM [%]
Cc1sc(C2CCCN2C(=O)CNC(N)=O)cc1C(=O)Nc1ncc(F)s1 (single isomer, unassigned; (-)) [Example 10, (−)-2-Methyl-5-[1-(2-ureidoacetyl)pyrrolidin-2-yl]thiophene-3-carboxylic acid (5-fluorothiazol-2-yl)amide]	600
Cc1sc(C2CCCN2C(=O)[C@H](C)NC(N)=O)cc1C(=O)Nc1ncc(F)s1 (single isomer, unassigned; (-)) [Example 22]	613
Cc1sc([C@@H]2C[C@@H](F)CN2C(=O)CN(C)CC(=O)O)cc1C(=O)Nc1ncc(F)s1 [Example 38, [(2-{(2S,4R)-4-Fluoro-2-[4-(5-fluorothiazol-2-ylcarbamoyl)-5-methylthiophen-2-yl]pyrrolidin-1-yl}-2-oxoethyl)methylamino]acetic acid hydrochloride]	801
Cc1sc(C2CCCN2C(=O)CN(C)CCCCC(=O)O)cc1C(=O)Nc1ncc(F)s1 (stereo not drawn) [Example 78, 5-[(2-{2-[4-(5-Fluorothiazol-2-ylcarbamoyl)-5-methylthiophen-2-yl}pyrrolidin-1-yl]-2-oxoethyl)methylamino]pentanoic acid hydrochloride]	695

Results, then the compound that gave them:

activation at 10 µM [%]	SMILES
717	Cc1sc(C2CCCN2C(=O)CN(C)CCCCC(=O)O)cc1C(=O)Nc1ncc(Cl)s1 (stereo not drawn) [Example 79, 5-[(2-{2-[4-(5-Chlorothiazol-2-ylcarbamoyl)-5-methylthiophen-2-yl]pyrrolidin-1-yl}-2-oxoethyl)methylamino]pentanoic acid hydrochloride]
752	CCCCCN(CC(=O)O)CC(=O)N1C[C@H](F)C[C@H]1c1cc(C(=O)Nc2ncc(F)s2)c(C)s1 [Example 80, [(2-[(2S,4R)-4-Fluoro-2-[4-(5-fluorothiazol-2-ylcarbamoyl)-5-methylthiophen-2-yl]pyrrolidin-1-yl]-2-oxoethyl)pentylamino]acetic acid]
787	CCCCCN(CC(=O)O)CC(=O)N1CCCC1c1cc(C(=O)Nc2ncc(F)s2)c(C)s1 (stereo not drawn) [Example 81, [(2-[2-[4-(5-Fluorothiazol-2-ylcarbamoyl)-5-methylthiophen-2-yl]pyrrolidin-1-yl]-2-oxoethyl)pentylamino]acetic acid]
